{
  "source": "paper PMC9289467",
  "about": "“A Novel Multifunctional 5,6-Dimethoxy-Indanone-Chalcone-Carbamate Hybrids Alleviates Cognitive Decline in Alzheimer’s Disease by Dual Inhibition of Acetylcholinesterase and Inflammation” (Frontiers in Aging Neuroscience, 2022)",
  "key": {"[1]": {"target": "T1, AChE-induced Aβ40 fibril formation (Homo sapiens, UniProt P22303)", "T1 construct": "purchased Roche (AChE); Invitrogen (Aβ40) R005282 (AChE); 03-136 (Aβ40)", "T1 sequence (P22303 32-614)": "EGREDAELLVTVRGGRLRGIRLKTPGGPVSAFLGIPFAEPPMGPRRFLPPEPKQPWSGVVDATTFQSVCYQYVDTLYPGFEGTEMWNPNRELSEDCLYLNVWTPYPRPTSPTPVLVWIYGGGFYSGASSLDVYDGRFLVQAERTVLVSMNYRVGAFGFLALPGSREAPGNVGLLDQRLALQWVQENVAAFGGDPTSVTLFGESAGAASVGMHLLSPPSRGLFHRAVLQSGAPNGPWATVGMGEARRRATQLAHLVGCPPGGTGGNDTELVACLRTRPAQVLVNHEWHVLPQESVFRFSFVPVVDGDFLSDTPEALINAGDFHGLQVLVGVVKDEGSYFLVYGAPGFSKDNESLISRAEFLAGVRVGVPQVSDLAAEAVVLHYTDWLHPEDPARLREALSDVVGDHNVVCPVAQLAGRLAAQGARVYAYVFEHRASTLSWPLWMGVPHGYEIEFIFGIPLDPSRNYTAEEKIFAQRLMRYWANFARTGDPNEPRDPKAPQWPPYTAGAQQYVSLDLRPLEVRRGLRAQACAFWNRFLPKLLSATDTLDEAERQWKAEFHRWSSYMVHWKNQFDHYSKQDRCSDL", "assay": "ThT kinetics of AChE-induced Aβ40 fibril formation", "format": "biochemical", "settings": "co-incubation of AP5 and Aβ40 with AChE, 24-h kinetic ThT assay", "procedure": "The effects of AP5 on Aβ fibril formation and pre-formed Aβ fibrils disaggregation were determined using a previously described method of Thioflavin T (ThT, T3516, Sigma Aldrich, St. Louis, MO, United States) fluorometry ([Jan et al., 2010]).\nSupplementary materials and methods … ...1 […]\nSupplementary Figure 1 … .....7\nSupplementary Figure 2 … .....7\nSupplementary materials and methods\nPrepations ofspecimen for pharmacokinetics analysis\n24 h afterdosing. Brains were collected at0, 0.25, 0.5,2, 4,8 and 24 h after administration.Plasma extractions were performed by adding 90 μL methanol and 2 μL internalstandard letrozole (500 ng/mL) to a30 µL plasma sample. […]\nThen 90 μL methanol and 2 μL letrozolewere added to 30 µl brainhomogenates. The samples were vortexed for 3 min and centrifuged 15 min at25,000 g.The plasma and brainhomogenate were analyzed by UPLC-TSQ/MS (Thermo Fisher Scientific, Waltham, MA, USA). […]\nTo study the kinetics of Aβ-AChE fibril complex formation, 10 μM Aβ was mixed with AChE (R005282, Roche, Basel, Switzerland) and different concentrations AP5 and incubated with 10 μM ThT and 50 mM glycine-NaOH (pH 8.5) at 37°C, the ThT fluorescence was continually measured for 24 h at 30 min intervals. […] Fluorescence emission at485 nm was measured on a Spectra MAX GeminiXS fluorometerat an excitation wavelength of 450 nm. […]"}, "Aβ40 and Aβ42": {"tested_on": "Aβ40 and Aβ42", "format": "in vivo, APP/PS1 mice", "settings": "cortex and hippocampus; AP5 40 mg/kg once daily 5 months", "procedure": "APP/PS1 mice of ages 6 months were randomly divided into vehicle (APP/PS1, n = 10) and treatment groups (AP5, n = 10), which were intragastrically administered with AP5 (40 mg/kg) once daily for consecutive 5 months. AP5 was dissolved in distilled water containing 1% sodium carboxymethyl cellulose.\nFor detecting the pathological soluble or insoluble Aβ in mice, sequential extractions were performed as follows: the half of right hippocampus and cortex from three groups were homogenized in TBS solution containing 5 mM EDTA, phosphatase inhibitor (P1050, Beyotime, Shanghai, China), and protease inhibitor cocktail (P1010, Beyotime) followed by centrifugation at 25,000g at 4°C for 1 h. The supernatant was collected as a TBS fraction and the resulting pellet was solubilized in 70% formic acid (FA), sonicated until the lysis buffer was clear, followed by centrifugation at 25,000g at 4°C for 1 h. The supernatant was collected as the FA fraction and neutralized (1:20) in a neutralization buffer (1 M tris base, 0.5 M Na2HPO4, 0.05% NaN3). Human Aβ40 and Aβ42 were determined by ELISA kits (E-EL-H0452c and E-EL-H0453c, Elabscience, Wuhan, China) in accordance with the manufacturer’s instructions. In addition, the levels of IL-1β (88-7013-88, Invitrogen), IL-6 (EK206HS-96, Multi sciences, HangZhou, China), and TNF-α (88-7324-88, Invitrogen) in TBS fraction were also determined by ELISA."}, "Aβ42 oligomers": {"target": "T2, Aβ42 oligomers (Homo sapiens, UniProt P05067)", "T2 construct": "purchased Aladdin A118755", "T2 sequence (P05067 672-713 limits assumed)": "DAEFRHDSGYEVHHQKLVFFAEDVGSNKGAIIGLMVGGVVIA", "assay": "Aβ42 self-oligomerization dot blot (A11 antibody)", "format": "biochemical", "settings": "oligomer-specific antibody A11", "procedure": "The formation of Aβ40 or Aβ42 oligomers was monitored by dot blot with oligomer-specific antibody. Briefly, the resulting Aβ film was dissolved in ddH2O to form a 100 μM solution, and then the oligomerization reaction ([Kayed et al., 2003]) was initiated in absence or presence of different concentrations of AP5. An aliquot (2 μL) of each solution was dripped on a nitrocellulose membrane. The membrane was blocked with 5% non-fat milk in TBS for 1 h, incubated with the anti-β amyloid (MOAB-2, NBP2-13075SS, Novus Biologicals, Colorado, United States), anti-amyloid oligomers (A11, NBP1-97930, Novus Biologicals), or anti-amyloid fibrils (OC, NBP1-97930, Novus Biologicals) antibodies overnight at 4°C. The membrane was then incubated using HRP-conjugated secondary antibodies at room temperature for 1 h and then developed with ECL."}},
  "data": [
    {"compound": "CCN(C)C(=O)Oc1cccc(/C=C2\\Cc3cc(OC)c(OC)cc3C2=O)c1", "note": "[AP5, (E)-3-((5,6-dimethoxy-1-oxo-1,3-dihydro-2H-inden-2-ylidene)-methyl)phenylethyl(methyl)carbamate]", "values": [
      {"measurement": "ThT intensity, AChE-induced Aβ40 fibril formation", "setting": "[1]", "value": "substantially lowered the ThT intensity in a dose-dependent manner"},
      {"measurement": "Aβ40 and Aβ42 in TBS-fraction", "setting": "Aβ40 and Aβ42", "value": "no marked differences"},
      {"measurement": "concentration of insoluble Aβ40 in FA-fractions", "setting": "Aβ40 and Aβ42", "value": "markedly decreased"},
      {"measurement": "concentration of insoluble Aβ42 in FA-fractions", "setting": "Aβ40 and Aβ42", "value": "markedly decreased"},
      {"measurement": "levels of oligomeric Aβ42", "setting": "Aβ42 oligomers", "value": "decreased the levels"}
    ]}
  ]
}
